The source of these data is patent US20230158025A1 (UNIVERSITY OF UTAH RESEARCH FOUNDATION, priority 2020, published 2023).

Read-outs that look alike come from different tables or passages of the source.

One series in a line: PAMPA permeability. To be noted: PAMPA.
Series [1] can be described thus: aqueous kinetic solubility. To be noted: aqueous kinetic solubility.
A further series addresses recombinant mouse GALK1 (Mus musculus, UniProt Q9R0N0). Briefly: mGALK1 biochemical activity assay (Kinase-Glo Plus, ATP depletion). In short, it runs like this: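 Recombinant GALK1 (5 nM) with 100 μM galactose; GALK1 turnover read as ATP depletion by Kinase-Glo Plus luminescence. Reaction ran 1 h at room temperature before detection reagent was added.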
The target of a further series is recombinant human GALK1 (Homo sapiens, UniProt P51570). Briefly: hGALK1 biochemical activity assay (Kinase-Glo Plus, ATP depletion). In short, it runs like this: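 Turnover is measured as ATP depletion by Kinase-Glo Plus luminescence after a 1 h room-temperature reaction. Compounds span 11 concentrations, 57.4 μM–0.97 nM, in final 20 mM HEPES pH 8.0 with 5 mM MgCl2. The substrate solution held 35 μM ATP; the added solution held 5 nM human or mouse GALK1 and 100 μM galactose.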

Series [2] is described as follows: rat microsomal stability (RLM). Particulars: microsomal stability half-life.
Where [3] appears, read: recombinant mouse GALK1, Kinase-Glo Plus ATP depletion.
Where [4] appears, read: recombinant human GALK1, Kinase-Glo Plus ATP depletion.
Setting [5] is: Tables 2-15, 35 μM ATP, 100 μM galactose, 1 h, bracketed figure after some values is undefined and not reported, read-out: mGALK IC50.
[6] abbreviates: recombinant mouse GALK1, Kinase-Glo Plus ATP depletion, read-out: mGALK.
The mark [7] stands for this setting: Tables 2-15, 35 μM ATP, 100 μM galactose, 1 h, bracketed figure after some values (e.g. −1.2) is undefined and not reported, read-out: hGALK IC50.
Where [8] appears, read: recombinant human GALK1, Kinase-Glo Plus ATP depletion, read-out: hGALK.

Sequence of recombinant human GALK1 (P51570 whole entry): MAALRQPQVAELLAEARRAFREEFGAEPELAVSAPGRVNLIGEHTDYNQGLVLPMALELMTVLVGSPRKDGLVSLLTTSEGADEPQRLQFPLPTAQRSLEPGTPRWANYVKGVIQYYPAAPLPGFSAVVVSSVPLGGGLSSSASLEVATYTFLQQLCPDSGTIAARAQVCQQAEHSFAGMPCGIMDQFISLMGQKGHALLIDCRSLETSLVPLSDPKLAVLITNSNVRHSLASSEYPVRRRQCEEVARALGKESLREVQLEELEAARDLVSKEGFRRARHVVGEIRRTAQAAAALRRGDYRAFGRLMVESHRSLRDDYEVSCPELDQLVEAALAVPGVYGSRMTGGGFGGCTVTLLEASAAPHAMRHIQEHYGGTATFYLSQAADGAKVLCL
Sequence of recombinant mouse GALK1 (Q9R0N0 whole entry): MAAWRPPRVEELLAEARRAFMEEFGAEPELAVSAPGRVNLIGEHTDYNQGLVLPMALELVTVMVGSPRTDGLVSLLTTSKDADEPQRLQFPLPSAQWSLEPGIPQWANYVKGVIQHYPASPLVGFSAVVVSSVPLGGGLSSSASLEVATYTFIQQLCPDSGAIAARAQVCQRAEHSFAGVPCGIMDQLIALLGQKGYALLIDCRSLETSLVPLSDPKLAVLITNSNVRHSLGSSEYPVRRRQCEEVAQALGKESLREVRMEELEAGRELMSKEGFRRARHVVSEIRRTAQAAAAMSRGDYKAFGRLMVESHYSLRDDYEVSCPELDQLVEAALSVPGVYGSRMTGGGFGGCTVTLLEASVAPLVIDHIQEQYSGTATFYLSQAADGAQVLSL

With `COC(=O)c1ccnc(NC(=O)C2=C(C)NC(Nc3nc4ccccc4o3)=N[C@@H]2c2ccccc2Cl)c1` [Compound 207, (S)-methyl 2-(2-(benzo[d]oxazol-2-ylamino)-4-(2-chlorophenyl)-6-methyl-1,4-dihydropyrimidine-5-carboxamido)isonicotinate], the “Perm. (1 × 10^−6 cm/sec)” value in “PAMPA permeability” is reported as 250.4 1 × 10^−6 cm/sec. The “Sol.” value in series [1] was <1 µg/mL. In addition, the “mGALK (μM)” value at recombinant mouse GALK1 (setting [3]) was “in- active”. Further, the “hGALK (μM)” value at recombinant human GALK1 (setting [4]) is given as “in- active”. The “Metab. Stabil. (m)” value in series [2] is 25.55 m.
For `CC1=C(C(=O)Nc2cc(C(=O)O)ccn2)[C@H](c2ccccc2Cl)N=C(Nc2nc3ccccc3o2)N1` [Compound 208, (R)-2-(2-(benzo[d]oxazol-2-ylamino)-4-(2-chlorophenyl)-6-methyl-1,4-dihydropyrimidine-5-carboxamido)isonicotinic acid], in the series “PAMPA permeability”, the “Perm. (1 × 10^−6 cm/sec)” value is <1 1 × 10^−6 cm/sec. In addition, the “Sol.” value in series [1] was >74 µg/mL. Besides, the IC50 on recombinant mouse GALK1 (setting [5]) worked out at 3.43 µM; on recombinant mouse GALK1 (setting [6]), 3.43 µM; at recombinant human GALK1 (setting [7]), 0.54 µM; on recombinant human GALK1 (setting [8]) it was 0.54 µM. Further, the “Metab. Stabil. (m)” value in series [2] is >30 m.
As to `CC1=C(C(=O)Nc2cc(C(=O)O)ccn2)[C@@H](c2ccccc2Cl)N=C(Nc2nc3ccccc3o2)N1` [Compound 209, (S)-2-(2-(benzo[d]oxazol-2-ylamino)-4-(2-chlorophenyl)-6-methyl-1,4-dihydropyrimidine-5-carboxamido)isonicotinic acid], in the series “PAMPA permeability”, the “Perm. (1 × 10^−6 cm/sec)” value is given as <1 1 × 10^−6 cm/sec. Also, the “Sol.” value in series [1] was >74 µg/mL. Besides, the IC50 was determined as 19.3 µM at recombinant mouse GALK1 (setting [5]), 19.3 µM at recombinant mouse GALK1 (setting [6]), 12.2 µM at recombinant human GALK1 (setting [7]) and 12.2 µM at recombinant human GALK1 (setting [8]). Also, the “Metab. Stabil. (m)” value in series [2] is given as >30 m.
Regarding `CC1=C(C(=O)Nc2cc(C(=O)O)ccc2F)C(c2ccccc2Cl)N=C(Nc2nc3ccccc3o2)N1` (centres unmarked) [Compound 210, 3-(2-(benzo[d]oxazol-2-ylamino)-4-(2-chlorophenyl)-6-methyl-1,4-dihydropyrimidine-5-carboxamido)-4-fluorobenzoic acid], in “PAMPA permeability”, the “Perm. (1 × 10^−6 cm/sec)” value is listed as 3.3 1 × 10^−6 cm/sec. The “Sol.” value in series [1] came to 25.4 µg/mL. Moreover, the values for the IC50 on recombinant mouse GALK1 (setting [6]) and on recombinant human GALK1 (setting [8]) were 10.9 µM and 3.06 µM, respectively. The “Metab. Stabil. (m)” value in series [2] was >30 m.
Turning to `CC1=C(C(=O)Nc2cc(CO)ccn2)C(c2ccccc2Cl)N=C(Nc2nc3ccccc3o2)N1` (centres unmarked) [Compound 211, 2-(benzo[d]oxazol-2-ylamino)-4-(2-chlorophenyl)-N-(4-(hydroxymethyl)pyridin-2-yl)-6-methyl-1,4-dihydropyrimidine-5-carboxamide], the “Perm. (1 × 10^−6 cm/sec)” value in “PAMPA permeability” is 109.6 1 × 10^−6 cm/sec. The “Sol.” value in series [1] was <1 µg/mL. Also, the IC50 on recombinant mouse GALK1 (setting [5]) stood at 9.68 µM; at recombinant mouse GALK1 (setting [6]), 9.68 µM; on recombinant human GALK1 (setting [7]), 3.06 µM; on recombinant human GALK1 (setting [8]) it was 3.06 µM. Besides, the “Metab. Stabil. (m)” value in series [2] was >30 m.
`CC1=C(C(=O)Nc2cc(C(N)=O)ccn2)C(c2ccccc2Cl)N=C(Nc2nc3ccccc3o2)N1` (centres unmarked) [Compound 212, 2-(benzo[d]oxazol-2-ylamino)-N-(4-carbamoylpyridin-2-yl)-4-(2-chlorophenyl)-6-methyl-1,4-dihydropyrimidine-5-carboxamide]: the “Perm. (1 × 10^−6 cm/sec)” value in “PAMPA permeability” was 156.0 1 × 10^−6 cm/sec. For the same molecule, the “Sol.” value in series [1] was <1 µg/mL. The IC50 was found to be 7.69 µM at recombinant mouse GALK1 (setting [5]), 7.69 µM on recombinant mouse GALK1 (setting [6]), 2.43 µM at recombinant human GALK1 (setting [7]) and 2.43 µM on recombinant human GALK1 (setting [8]). For the same molecule, the “Metab. Stabil. (m)” value in series [2] is reported as >30 m.
For the molecule `CNC(=O)c1ccnc(NC(=O)C2=C(C)NC(Nc3nc4ccccc4o3)=NC2c2ccccc2Cl)c1` (centres unmarked) [Compound 213, 2-(benzo[d]oxazol-2-ylamino)-4-(2-chlorophenyl)-6-methyl-N-(4-(methylcarbamoyl)pyridin-2-yl)-1,4-dihydropyrimidine-5-carboxamide], in “PAMPA permeability”, the “Perm. (1 × 10^−6 cm/sec)” value is given as 421.9 1 × 10^−6 cm/sec. The “Sol.” value in series [1] was <1 µg/mL. The IC50 on recombinant mouse GALK1 (setting [5]) was determined as 10.9 µM; on recombinant mouse GALK1 (setting [6]), 10.9 µM; at recombinant human GALK1 (setting [7]), 3.06 µM; on recombinant human GALK1 (setting [8]), 3.06 µM. Moreover, the “Metab. Stabil. (m)” value in series [2] was >30 m.
For the molecule `CC1=C(C(=O)Nc2ccccn2)C(c2ccccc2Cl)N=C(Nc2nc3ccccc3o2)N1` (centres unmarked) [Compound 214, 2-(benzo[d]oxazol-2-ylamino)-4-(2-chlorophenyl)-6-methyl-N-(pyridin-2-yl)-1,4-dihydropyrimidine-5-carboxamide], the “Perm. (1 × 10^−6 cm/sec)” value in “PAMPA permeability” is recorded as 173.5 1 × 10^−6 cm/sec. The “Sol.” value in series [1] was <1 µg/mL. Also, the results for the IC50 at recombinant mouse GALK1 (setting [5]), at recombinant mouse GALK1 (setting [6]) and at recombinant human GALK1 (setting [8]) were 10.9 µM, 10.9 µM and 4.32 µM, respectively. Further, the “Metab. Stabil. (m)” value in series [2] is recorded as >30 m.
Take `COc1ccccc1CNC(=O)C1=C(C)NC(Nc2nc3ccccc3o2)=NC1c1ccccc1Cl` (centres unmarked) [Compound 215, 2-(benzo[d]oxazol-2-ylamino)-4-(2-chlorophenyl)-N-(2-methoxybenzyl)-6-methyl-1,4-dihydropyrimidine-5-carboxamide]: the “Perm. (1 × 10^−6 cm/sec)” value in the series “PAMPA permeability” is 99.3 1 × 10^−6 cm/sec. Further, the “Sol.” value in series [1] is <1 µg/mL. Also, the IC50 on recombinant mouse GALK1 (setting [5]) turned out to be 12.2 µM; on recombinant mouse GALK1 (setting [6]), 12.2 µM; at recombinant human GALK1 (setting [7]), 7.69 µM; on recombinant human GALK1 (setting [8]), 7.69 µM. Moreover, the “Metab. Stabil. (m)” value in series [2] was 1.4 m.
Consider `CC1=C(C(=O)NCc2ccc(Cl)cc2)C(c2ccccc2Cl)N=C(Nc2nc3ccccc3o2)N1` (centres unmarked) [Compound 218, 2-(benzo[d]oxazol-2-ylamino)-4-(2-chlorophenyl)-N-(4-chlorobenzyl)-6-methyl-1,4-dihydropyrimidine-5-carboxamide], for which the “Perm. (1 × 10^−6 cm/sec)” value in “PAMPA permeability” is reported as 25.8 1 × 10^−6 cm/sec. Also, the “Sol.” value in series [1] is <1 µg/mL. Besides, the “mGALK IC50” value on recombinant mouse GALK1 (Tables 2-15, 35 μM ATP, 100 μM galactose, 1 h, bracketed figure after some values is undefined and not reported) is “inactive”. Besides, the “mGALK (μM)” value on recombinant mouse GALK1 (setting [3]) is listed as “in- active”. The “hGALK IC50” value on recombinant human GALK1 (Tables 2-15, 35 μM ATP, 100 μM galactose, 1 h, bracketed figure after some values (e.g. −1.2) is undefined and not reported) is “inactive”. Also, the “hGALK (μM)” value on recombinant human GALK1 (setting [4]) is given as “in- active”. Also, in series [2], the “Metab. Stabil. (m)” value is 11.91 m.
Regarding `CC1=C(C(=O)NCc2ccccn2)C(c2ccccc2Cl)N=C(Nc2nc3ccccc3o2)N1` (centres unmarked) [Compound 220, 2-(benzo[d]oxazol-2-ylamino)-4-(2-chlorophenyl)-6-methyl-N-(pyridin-2-ylmethyl)-1,4-dihydropyrimidine-5-carboxamide], the “Perm. (1 × 10^−6 cm/sec)” value in “PAMPA permeability” was 1424.0 1 × 10^−6 cm/sec. The “Sol.” value in series [1] was 1.8 µg/mL. Moreover, the results for the IC50 on recombinant mouse GALK1 (setting [6]), at recombinant human GALK1 (setting [7]) and on recombinant human GALK1 (setting [8]) were 19.3 µM, 8.63 µM and 8.63 µM, respectively. Also, the “Metab. Stabil. (m)” value in series [2] is given as 6.557 m.
As for `CC1=C(C(=O)NCc2cccnc2)C(c2ccccc2Cl)N=C(Nc2nc3ccccc3o2)N1` (centres unmarked) [Compound 221, 2-(benzo[d]oxazol-2-ylamino)-4-(2-chlorophenyl)-6-methyl-N-(pyridin-3-ylmethyl)-1,4-dihydropyrimidine-5-carboxamide], in “PAMPA permeability”, the “Perm. (1 × 10^−6 cm/sec)” value is on record as 1248.8 1 × 10^−6 cm/sec. In addition, the “Sol.” value in series [1] is <1 µg/mL. For the same molecule, the IC50 at recombinant mouse GALK1 (setting [6]) is 19.3 µM; at recombinant human GALK1 (setting [7]), 6.85 µM; at recombinant human GALK1 (setting [8]) it was 6.85 µM. Besides, the “Metab. Stabil. (m)” value in series [2] worked out at 1.582 m.
As for `COC(=O)c1ccccc1CNC(=O)C1=C(C)NC(Nc2nc3ccccc3o2)=NC1c1ccccc1Cl` (centres unmarked) [Compound 222, methyl 2-((2-(benzo[d]oxazol-2-ylamino)-4-(2-chlorophenyl)-6-methyl-1,4-dihydropyrimidine-5-carboxamido)methyl)benzoate], the “Perm. (1 × 10^−6 cm/sec)” value in the series “PAMPA permeability” is given as 462.5 1 × 10^−6 cm/sec. Further, in series [1], the “Sol.” value is <1 µg/mL. Moreover, the IC50 was determined as 4.32 µM on recombinant mouse GALK1 (setting [5]), 4.32 µM at recombinant mouse GALK1 (setting [6]), 6.85 µM at recombinant human GALK1 (setting [7]) and 6.85 µM on recombinant human GALK1 (setting [8]). In addition, the “Metab. Stabil. (m)” value in series [2] was found to be 1.742 m.
In the case of `COC(=O)c1ccc(CNC(=O)C2=C(C)NC(Nc3nc4ccccc4o3)=NC2c2ccccc2Cl)cc1` (centres unmarked) [Compound 223, methyl 4-((2-(benzo[d]oxazol-2-ylamino)-4-(2-chlorophenyl)-6-methyl-1,4-dihydropyrimidine-5-carboxamido)methyl)benzoate], in “PAMPA permeability”, the “Perm. (1 × 10^−6 cm/sec)” value is 543.4 1 × 10^−6 cm/sec. Besides, the “Sol.” value in series [1] is <1 µg/mL. For the same molecule, the IC50 at recombinant mouse GALK1 (setting [5]) came out at 8.63 µM; at recombinant mouse GALK1 (setting [6]) it was 8.63 µM; at recombinant human GALK1 (setting [7]) it was 4.32 µM; at recombinant human GALK1 (setting [8]), 4.32 µM. Further, the “Metab. Stabil. (m)” value in series [2] is given as 8.495 m.
On to `COC(=O)c1cccc(CNC(=O)C2=C(C)NC(Nc3nc4ccccc4o3)=NC2c2ccccc2Cl)c1` (centres unmarked) [Compound 224, methyl 3-((2-(benzo[d]oxazol-2-ylamino)-4-(2-chlorophenyl)-6-methyl-1,4-dihydropyrimidine-5-carboxamido)methyl)benzoate], for which the “Perm. (1 × 10^−6 cm/sec)” value in the series “PAMPA permeability” is reported as 615.7 1 × 10^−6 cm/sec. In addition, the “Sol.” value in series [1] was <1 µg/mL. The IC50 turned out to be 7.69 µM on recombinant mouse GALK1 (setting [5]), 7.69 µM at recombinant mouse GALK1 (setting [6]), 4.85 µM on recombinant human GALK1 (setting [7]) and 4.85 µM on recombinant human GALK1 (setting [8]). In addition, in series [2], the “Metab. Stabil. (m)” value worked out at 3.416 m.
